{"source": "patent US20250197837A1", "about": "“SERINE PROTEASE FOR SELECTIVELY DEGRADING MUCINS AND USE THEREOF” (priority 2022, published 2025)", "key": {"[1]": {"target": "gel-like mucins from the abdominal cavity of patients with clinical peritoneal pseudomyxoma"}, "[2]": {"target": "mucus from mucinous appendiceal adenocarcinoma (clinical source)"}, "[3]": {"target": "mucus from mucinous ovarian cancer (clinical source)"}, "[4]": {"tested_on": "mucins after mucus formation", "conditions": "background statement; cited from earlier work"}, "[5]": {"tested_on": "gel-like mucins from the abdominal cavity of patients with clinical peritoneal pseudomyxoma", "assay": "Example 1: degradation of gel-like mucins by EatA, visual/pipette observation", "assay_type": "biochemical, human", "conditions": "about 80 μg enzyme, 0.30 g mucins, 500 ul, 37° C., 3 h", "excerpt": "(§1) Since mucins of different origins and mucins associated with the mucus-related disease have different expression patterns and post-translational modifications, different mucins of clinical pathological origin and mixtures thereof are used in the present application. Preferably, mucins of clinical peritoneal pseudomyxoma origin are used. In the present application, firstly, gel-like mucins from the abdominal cavity of patients with clinical peritoneal pseudomyxoma are collected, after protein precipitation with 30% to 100% ammonium sulfate, cells and tissue fragments, adipose tissue that possibly doped in the collection process of mucins are selected and removed, and then dialyzed and filtered through a 100 KDa dialysis bag. Through the use of sulfate detection test paper, the sulfate concentration in the dialysate and the inner side of the dialysis bag is confirmed. When the sulfate concentration is less than 200 mg/L, the dialysis is terminated and gel-like mucins can be seen. This sample is collected and used as the substrate for in vitro tests to examine the degradation ability of serine protease EatA on mucins. Some examples used mucins removed from the abdominal cavity of clinical patients without purification. […]"}, "gel-like mucins [6]": {"tested_on": "gel-like mucins", "assay": "Example 2: mass loss of gel-like mucins, EatA versus bromelain", "assay_type": "biochemical, human", "conditions": "0.10 g mucins, 500 uL PBS, 37° C., 6 h", "excerpt": "as §1"}, "gel-like mucins [7]": {"tested_on": "gel-like mucins", "assay": "Example 3: temperature, pH and time dependence of mucin degradation", "assay_type": "biochemical, human", "excerpt": "Since mucins of different origins and mucins associated with the mucus-related disease have different expression patterns and post-translational modifications, different mucins of clinical pathological origin and mixtures thereof are used in the present application. Preferably, mucins of clinical peritoneal pseudomyxoma origin are used. In the present application, firstly, gel-like mucins from the abdominal cavity of patients with clinical peritoneal pseudomyxoma are collected, after protein precipitation with 30% to 100% ammonium sulfate, cells and tissue fragments, adipose tissue that possibly doped in the collection process of mucins are selected and removed, and then dialyzed and filtered through a 100 KDa dialysis bag. Through the use of sulfate detection test paper, the sulfate concentration in the dialysate and the inner side of the dialysis bag is confirmed. When the sulfate concentration is less than 200 mg/L, the dialysis is terminated and gel-like mucins can be seen. This sample is collected and used as the substrate for in vitro tests to examine the degradation ability of serine protease EatA on mucins. Some examples used mucins removed from the abdominal cavity of clinical patients without purification.\nDuring the experiment, 0.10 g of gel-like mucins was accurately weighed for each single reaction, 20 μg of aminoprotease EatA was added, the reaction was performed in 500 uL of solution system, and the weighing method for the remaining gel-like mucins was the same as that in Example 2. The control group was performed under the same conditions except that the serine protease EatA was not added, and three reactions were set in each group as statistical replicates. Due to the hydrating nature of gel-like mucins, the gel-like mucins absorbed water and swelled when in solution, resulting in a certain weight increase in the control group when finally weighed.\nAmong them, the experiment on temperature gradient was conducted in normal saline with pH=7.1, and results were shown in FIG. 4; in the pH experiment, the reaction system used was a solution system with different pH values based on 0.9% normal saline, and the reaction temperature was 37° C., and results are shown in FIG. 5; the reaction time for both the above-mentioned experiments was 6 h.\nIn the experiment regarding the degradation time, based on the temperature curve and pH curve, the experiment was carried out in PBS buffer with pH=7.2-7.4 at 37° C."}, "[8]": {"tested_on": "miscellaneous protein derived from the patient's abdominal cavity", "assay": "Example 4: specificity, SDS-PAGE of miscellaneous proteins in homogenized patient mucins", "assay_type": "biochemical, human", "conditions": "2-10 ug protease, 100 μL homogenized mucins, 200 uL, 6 h", "description": "Untreated mucins derived from clinical patients were briefly cleared to remove cellular tissue. 0.20 g of the above-mentioned mucins was accurately weighed and placed in 1 mL of PBS solution, 3-4 magnetic beads with a diameter of 1 mm were added, and then a resulting mixture was frozen and shaken at −30° C. for homogenization, so as to destroy the gel-like morphology of mucins, and release the miscellaneous protein from patients with mixed gel-like mucins. 100 μL of the homogenized mucins solution was added with 2-10 ug of protease (bromelain or serine protease EatA), respectively, and the reaction was performed in a 200 uL reaction system. After 6 h of reaction, samples were respectively taken for SDS-PAGE detection, and the total protein after fragmentation, which was the patient-derived miscellaneous protein in the abdominal cavity/abdominal mucins of the patient, was analyzed."}, "[9]": {"tested_on": "human patient-derived gel-like mucins", "assay": "Example 5: in vivo degradation of gel-like mucins embedded in mouse abdominal cavity", "set-up": "species or system C57 male mice", "conditions": "80 ug injected 24 h after embedding 0.30 g mucins, sacrificed after 48 h", "description": "The experiment included twenty C57 male mice aged 6-8 weeks. Five groups were set up in the experiment, including an experimental group (mucus+EatA, 5 mice), a control group (mucus+PBS, 5 mice), a bromelain group (mucus+bromelain, 5 mice), a negative sham operation group (minimal invasive open operation performed without adding mucins and enzyme, 3 mice), and a reference group (minimal invasive open operation performed with adding EatA protease, 2 mice). […] After 48 h, the mice were sacrificed, laparotomy was performed (results of abdominal examination after laparotomy were shown in FIG. 9) and the whole amount of gel-like mucins in the mice were removed, weighed using the method described in Example 2, counted and compared with the final amount of gel-like mucins remaining in three groups (experimental group (mucus+EatA), control group without enzyme (mucus+PBS) and bromelain group (mucus+bromelain)) to which gel-like mucins was added as a substrate, and results were shown in FIG. 8."}, "[10]": {"assay": "Example 5: tolerability in mice after intraperitoneal injection", "assay_type": "in vivo, C57 male mice", "conditions": "mice injected with enzyme"}, "[11]": {"tested_on": "mucinous ovarian cancer (MOC) mucus", "assay": "Example 6: viscosity of mucinous ovarian cancer mucus after incubation (rheometer)", "assay_type": "biochemical, human", "conditions": "50 μg enzyme, 0.50 mL mucus, 750 uL, 37° C., 600 rpm, 20 h; control about 2000 mPa s", "description": "(§2) This example carried out a degradation experiment on mucus from mucinous ovarian cancer and mucinous appendiceal adenocarcinoma using the serine protease EatA. 0.50 mL of the above-mentioned two new types of mucinous carcinoma mucus from clinical sources were weighed directly into test tubes, 50 μg of EatA serine protease dissolved in 0.25 mL of PBS buffer was added and then incubated in a total 750 uL reaction system at 37° C., 600 rpm for 20 h. For each type of mucinous carcinoma mucus sample, a control group was set up with only the addition of an equal volume of PBS, for a total of four experiments, each set up with three replicates. The viscosity of the incubated experimental samples was measured under an Anton Paar rheometer, probe model pp25, sample spacing 0.45 mm. After each sample was subjected to pre-shearing at a shearing frequency of 5 rad/s for 20 s, a total of 36 sample point data was obtained for each group of experiments by reading a total of 12 data at a shearing frequency of 10 rad/s every 5 s period for 60 s."}, "[12]": {"tested_on": "mucinous appendiceal adenocarcinoma (MAA) mucus", "assay": "Example 6: viscosity and appearance of mucinous appendiceal adenocarcinoma mucus after incubation", "assay_type": "biochemical, human", "conditions": "50 μg enzyme, 20 h", "description": "as §2"}, "[13]": {"tested_on": "mucus (sputum), mucous colon cancer and the like of patients with chronic obstructive pulmonary pneumonia", "assay": "Applicant's related studies: degradation of COPD sputum and mucous colon cancer mucus", "assay_type": "biochemical, human", "conditions": "relevant study results of the applicant"}, "[14]": {"tested_on": "gelatin, lactoferrin and CD43, BSA and BSM", "conditions": "previous studies; cited from earlier work"}}, "data": [{"substance": "serine protease EatA (serine protease EatA-EatAp with only the passenger domain) (enzyme)", "values": [{"measurement": "mass loss of gel-like mucins", "setting": "[1]", "value": 90.3, "unit": "%"}, {"measurement": "viscosity of mucus (rheometer)", "setting": "[2]", "value": 7, "unit": "mPa s"}, {"measurement": "viscosity of mucus (rheometer)", "setting": "[3]", "value": 670, "unit": "mPa s"}]}, {"substance": "pancreatin", "values": [{"measurement": "mucin degradation after mucus formation", "setting": "[4]", "value": "inefficient"}]}, {"substance": "elastase", "values": [{"measurement": "mucin degradation after mucus formation", "setting": "[4]", "value": "inefficient"}]}, {"substance": "serine protease EatA: autotransporter serine protease from enterotoxigenic Escherichia coli H10407; passenger domain SEQ ID NO 2, full length SEQ ID NO 1", "values": [{"measurement": "degradation of gel-like mucins (observation)", "setting": "[5]", "value": "obvious degradation of gel-like mucins"}, {"measurement": "mass loss of gel-like mucins", "setting": "gel-like mucins [6]; 40 μg enzyme, based on initial mass 0.1 g", "value": 90.33, "unit": "%"}, {"measurement": "pH of maximum degradation efficiency", "setting": "gel-like mucins [7]; 20 μg enzyme, 0.10 g mucins, 0.9% normal saline based, 37° C., 6 h", "value": "~8"}, {"measurement": "mass loss of gel-like mucins", "setting": "gel-like mucins [7]; 20 μg enzyme, 0.10 g mucins, PBS pH=7.2-7.4, 37° C., 10.5 h", "value": 80, "unit": "%"}, {"measurement": "temperature of maximum enzyme activity", "setting": "gel-like mucins [7]; 20 μg enzyme, 0.10 g mucins, normal saline pH=7.1, 6 h", "value": "34-37 °C"}, {"measurement": "optimal working environment: pH", "setting": "gel-like mucins [7]; degradation of gel-like mucins", "value": "7-8"}, {"measurement": "optimal working environment: reaction temperature", "setting": "gel-like mucins [7]; degradation of gel-like mucins", "value": "34-37 °C"}, {"measurement": "degradation of patient-derived miscellaneous proteins (SDS-PAGE)", "setting": "[8]", "value": "did not degrade these proteins"}, {"measurement": "degradation efficiency of gel-like mucins in vivo", "setting": "[9]; based on initial 0.30 g", "value": 78, "unit": "%"}, {"measurement": "survival from the beginning of the experiment", "setting": "[10]", "value": "more than 100 days"}, {"measurement": "adverse reactions, behavior and body weight", "setting": "[10]; compared with non-injected group", "value": "without adverse reactions"}, {"measurement": "viscosity of mucus after incubation", "setting": "[11]", "value": "about 670 mPa s"}, {"measurement": "viscosity of mucus after incubation", "setting": "[12]; 0.50 mL mucus, 750 uL, 37° C., 600 rpm, control about 1200 mPa s", "value": "about 7 mPa s"}, {"measurement": "appearance of mucus sample solution after incubation", "setting": "[12]; after standing", "value": "becomes uniform"}, {"measurement": "degradation effect on mucus", "setting": "[13]", "value": "certain degradation effect"}, {"measurement": "degradation of common human glycoproteins and non-human proteins", "setting": "[14]", "value": "did not degrade"}]}, {"substance": "bromelain [reference compound]", "values": [{"measurement": "mass loss of gel-like mucins (in words)", "setting": "gel-like mucins [6]; increasing enzyme concentration", "value": "negative"}, {"measurement": "degradation of patient-derived miscellaneous proteins (SDS-PAGE)", "setting": "[8]", "value": "the miscellaneous protein showed degradation"}, {"measurement": "amount of gel-like mucins remaining", "setting": "[9]", "value": "more than 0.30 g"}]}]}
